# In publication PMC6934184, “Selective DNA-PKcs inhibition extends the therapeutic index of localized radiotherapy and chemotherapy” (The Journal of Clinical Investigation, 2019):
# Biological target: T1, MAP2K1 (MEK1) S218D S222D (Homo sapiens, UniProt Q02750, S218D/S222D)
# T1 construct: purchased Thermo Fisher Scientific (Life Technologies) SelectScreen
# Test: SelectScreen LanthaScreen
# Assay type: binding
# Details: read-out: % displacement
# Procedure, shortened: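 NU5455 was profiled across the SelectScreen Broad panel of kinase activity and binding assays. Z'LYTE reactions such as CSF1R ran at apparent Km ATP, while the Adapta CAMK1 assay used ATP listed as 10. Values are given as percent.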
# T1 sequence (Q02750 whole entry S218D/S222D): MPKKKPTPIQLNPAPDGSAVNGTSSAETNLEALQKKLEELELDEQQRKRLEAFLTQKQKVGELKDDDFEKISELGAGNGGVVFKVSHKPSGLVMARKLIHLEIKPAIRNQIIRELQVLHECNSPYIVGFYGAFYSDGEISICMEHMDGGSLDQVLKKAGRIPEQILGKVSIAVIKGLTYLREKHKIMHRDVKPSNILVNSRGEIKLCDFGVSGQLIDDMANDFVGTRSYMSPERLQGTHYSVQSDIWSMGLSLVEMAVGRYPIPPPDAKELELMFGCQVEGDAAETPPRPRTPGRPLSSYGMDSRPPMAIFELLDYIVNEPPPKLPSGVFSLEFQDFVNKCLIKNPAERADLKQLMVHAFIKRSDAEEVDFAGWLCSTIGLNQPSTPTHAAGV
smiles,measurement,value
CN(C(=O)CN1CCOCC1)c1ccc2sc3c(-c4cccc5c(=O)cc(N6CC7CCC(C6)O7)oc45)cccc3c2c1 [NU5455],inhibition at 1 µM,-0.1%
